Test results published in PMC9000336, “Development of Bicyclo[3.1.0]hexane-Based A3 Receptor Ligands: Closing the Gaps in the Structure–Affinity Relationships” (Molecules, 2022).

What was measured:
[1] = molecular target: T1, human adenosine A3 receptor (Homo sapiens, UniProt P0DMS8); experiment: Radioligand displacement assay, human adenosine A3 receptor ([3H]PSB11, CHOhA3R membranes); assay type: binding; conditions: n = 3; for inhibition at 10 µM: test compound 10 µM
T1 construct: expressed in transfected cells; host or cells: CHO cells (CHOhA3R), gift of Dr. K.-N. Klotz (University of Würzburg); membrane preparation
T1 sequence (P0DMS8 1-318): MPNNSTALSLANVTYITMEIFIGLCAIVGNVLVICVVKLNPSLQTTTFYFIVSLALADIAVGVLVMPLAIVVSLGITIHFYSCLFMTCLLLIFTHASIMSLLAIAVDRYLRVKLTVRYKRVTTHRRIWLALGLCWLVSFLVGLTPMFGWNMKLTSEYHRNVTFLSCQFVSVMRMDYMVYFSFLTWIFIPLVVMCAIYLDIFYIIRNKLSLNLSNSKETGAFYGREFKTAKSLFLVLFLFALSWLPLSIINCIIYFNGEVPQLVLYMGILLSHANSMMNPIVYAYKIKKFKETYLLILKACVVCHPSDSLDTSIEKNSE
Experimental: Chinese hamster ovary (CHO) cells stably expressing the human adenosine A1 receptor (CHOhA1R) were kindly provided by Prof. S. J. Hill and CHO cells stably expressing the human adenosine A3 receptor (CHOhA3R) were a gift from Dr. K.-N. Klotz (University of Würzburg, Germany). Chinese hamster ovary cells stably expressing the human A1-receptor (CHOhA1R) or the human A3-receptor (CHOhA3R) were grown in Dulbecco’s Modified Eagle’s Medium (DMEM) and Ham’s F12 medium (1:1) supplemented with 10% (v/v) newborn calf serum, 50 µg/mL streptomycin, 50 IU/mL penicillin, and 200 µg/mL G418 at 37 °C and 5% CO2. […] All cells were grown to 80–90% confluency and detached from plates by scraping them into 5 mL phosphate-buffered saline. Detached cells were collected and centrifuged at 200 g for 5 min. Pellets derived from 100 15 cm Ø plates were pooled and resuspended in 70 mL of ice-cold 50 mM tris(hydroxymethyl)aminomethane (Tris)-HCl buffer, pH 7.4. A Heidolph Diax 900 homogenizer was used to homogenize the cell suspension. Membranes and the cytosolic fraction were separated by centrifugation at 100,000 g in a Beckman Optima LE-80 K ultracentrifuge (Beckman Coulter, Fullerton, CA, USA) at 4 °C for 20 min. The pellet was resuspended in 35 mL of the Tris-HCl buffer, and the homogenization and centrifugation steps were repeated. Tris-HCl buffer (25 mL) was used to resuspend the pellet, and adenosine deaminase (ADA) was added (0.8 U/mL) to break down endogenous adenosine. Membranes were stored in 250 µL and 500 µL aliquots at −80 °C. Total protein concentrations were measured using the bicinchoninic acid (BCA) method.
A3 Receptor: Membrane aliquots containing 15 µg (CHOhA3R) total protein were incubated in a total volume of 100 µL assay buffer (50 mM Tris-HCl, pH 8.0, supplemented with 10 mM MgCl2, 1 mM EDTA and 0.01% (w/v) CHAPS) at 25 °C for 2 h. Radioligand displacement experiments were performed using six concentrations of competing ligand in the presence of 10 nM [^3H]8-ethyl-4-methyl-2-phenyl-(8R)-4,5,7,8-tetrahydro-1H-imidazo[2.1-i]purin-5-one ([^3H]PSB11). […] Nonspecific binding was determined in the presence of 100 µM NECA. Incubations were terminated by rapid vacuum filtration to separate the bound and free radioligand through prewetted 96-well GF/B filter plates using a PerkinElmer Filtermate-harvester (Perkin Elmer, Groningen, The Netherlands). Filters were subsequently washed 12 times with ice-cold 50 mM Tris-HCl supplemented with 10 mM MgCl2, and 1 mM EDTA, pH 8.0 for CHOhA3R.
The plates of all four adenosine receptor assays were dried at 55 °C after which MicroscintTM-20-cocktail was added (Perkin Elmer, Groningen, The Netherlands).
All experimental data were analyzed using the non-linear regression curve fitting program GraphPad Prism 7.0 (GraphPad Software Inc., San Diego, CA, USA). IC50 values obtained from competition displacement binding data were converted into Ki values using the Cheng–Prusoff equation.

P1 receptor = P1 receptor binding studies (A1, A2A, A2B and A3), overall statement; parameters: species or system human; conditions: all four subtypes
Experimental: A1 Receptor: Membrane aliquots containing 5 µg (CHOhA1R) protein were incubated in a total volume of 100 µL assay buffer (50 mM Tris-HCl, pH 7.4) at 25 °C for 1 h. […] Nonspecific binding was determined in the presence of 100 µM N^6-cyclopentyladenosine (CPA). Incubations were terminated by rapid vacuum filtration to separate the bound and free radioligand through prewetted 96-well GF/B filter plates using a PerkinElmer Filtermate-harvester (Perkin Elmer, Groningen, the Netherlands). Filters were subsequently washed 12 times with ice-cold 50 mM Tris-HCl, pH 7.4.
Nonspecific binding was determined in the presence of 100 µM adenosine-5-N-ethyluronamide (NECA). Incubations were terminated by rapid vacuum filtration to separate the bound and free radioligand through prewetted 96-well GF/B filter plates using a PerkinElmer Filtermate-harvester (Perkin Elmer, Groningen, The Netherlands). Filters were subsequently washed 12 times with ice-cold 50 mM Tris-HCl, pH 7.4.
A2B Receptor: Membrane aliquots containing 30 µg (CHO-spap-hA2BR) total protein were incubated in a total volume of 100 µL assay buffer (0.1% CHAPS in 50 mM TrisHCl, pH 7.4) at 25 °C for 2 h. […] Nonspecific binding was determined in the presence of 10 µM ZM241385. Incubations were terminated by rapid vacuum filtration to separate the bound and free radioligand through prewetted 96-well GF/B filter plates using a PerkinElmer Filtermate-harvester (Perkin Elmer, Groningen, the Netherlands). Filters were subsequently washed 12 times with ice-cold 0.1% BSA in 50 mM Tris-HCl, pH 7.4.
A3 Receptor: Membrane aliquots containing 15 µg (CHOhA3R) total protein were incubated in a total volume of 100 µL assay buffer (50 mM Tris-HCl, pH 8.0, supplemented with 10 mM MgCl2, 1 mM EDTA and 0.01% (w/v) CHAPS) at 25 °C for 2 h. […] Nonspecific binding was determined in the presence of 100 µM NECA. […]
All experimental data were analyzed using the non-linear regression curve fitting program GraphPad Prism 7.0 (GraphPad Software Inc., San Diego, CA, USA). […]

Nc1cc(Cl)c2ncn([C@H]3[C@H](O)[C@H](O)[C@]4(CO)C[C@H]34)c2n1 [Compound 11, (1R,2R,3S,4R,5S)-4-(5-Amino-7-chloro-3H-imidazo[4,5-b]pyridin-3-yl)-1-(hydroxymethyl)bicyclo[3.1.0]hexane-2,3-diol] was tested, and the inhibition at 10 µM [1] was 4% and the “P1 receptor affinity” value (P1 receptor) was “no P1 receptor affinity”.

OC[C@@]12C[C@@H]1[C@@H](n1cnc3c(Cl)cc(Cl)nc31)[C@H](O)[C@@H]2O [Compound 12, (1R,2R,3S,4R,5S)-4-(5,7-Dichloro-3H-imidazo[4,5-b]pyridin-3-yl)-1-(hydroxymethyl)bicyclo[3.1.0]hexane-2,3-diol] was tested, and the Ki ([1]; [3H]PSB11, read-out: A3 Ki ± SEM) was > 10 µM and the “P1 receptor affinity” value (P1 receptor) was “no P1 receptor affinity”.

CSc1cc(N)c2ncn([C@H]3[C@H](O)[C@H](O)[C@]4(CO)C[C@H]34)c2n1 [Compound 17, (1R,2R,3S,4R,5S)-4-(7-Amino-5-methylthio-3H-imidazo[4,5-b]pyridin-3-yl)-1-(hydroxymethyl)bicyclo[3.1.0]hexane-2,3-diol] was tested, and the inhibition at 10 µM [1] was 45% and the “P1 receptor affinity” value (P1 receptor) was “loss of P1 receptor affinity”.
